One assay deals with FLT3(ITD,F691L). The assay is described as follows: KINOMEscan ScanTK. It counts as binding. The conditions noted are these: for %Control / % difference (compound - Ib %Control): @1000nM.
Another assay has as its target T1, EPHA7 (Homo sapiens, UniProt Q15375).
T1 construct: purchased Eurofins DiscoverX KINOMEscan (scanTK)
In words: KINOMEscan ScanTK. It is filed as binding.

Another assay has as its target T2, BLK (Homo sapiens, UniProt P51451).
T2 construct: purchased Eurofins DiscoverX KINOMEscan (scanTK)
The assay is described as follows: KINOMEscan ScanTK. The following applies: for remaining binding at 1 µM / difference in %Control vs reference Ib at 1 µM: BLK; for difference in %Control vs reference Ib at 1 µM: read-out: % difference (compound - Ib %Control). It counts as binding.

A further assay has as its system TMD8 cells. In words: RNA-seq gene expression. The conditions noted are these: TMD8, 1 μM, 8 h; for number of genes reduced vs DMSO: FDR < 0.01, log2FC < -0.5; for number of genes increased vs DMSO: FDR < 0.01, log2FC > 0.5.
The target of a further assay is T3, FLT3(N841I) (Homo sapiens, UniProt P36888, N841I).
T3 construct: purchased Eurofins DiscoverX KINOMEscan (scanTK)
T3 sequence (P36888 27-993 N841I): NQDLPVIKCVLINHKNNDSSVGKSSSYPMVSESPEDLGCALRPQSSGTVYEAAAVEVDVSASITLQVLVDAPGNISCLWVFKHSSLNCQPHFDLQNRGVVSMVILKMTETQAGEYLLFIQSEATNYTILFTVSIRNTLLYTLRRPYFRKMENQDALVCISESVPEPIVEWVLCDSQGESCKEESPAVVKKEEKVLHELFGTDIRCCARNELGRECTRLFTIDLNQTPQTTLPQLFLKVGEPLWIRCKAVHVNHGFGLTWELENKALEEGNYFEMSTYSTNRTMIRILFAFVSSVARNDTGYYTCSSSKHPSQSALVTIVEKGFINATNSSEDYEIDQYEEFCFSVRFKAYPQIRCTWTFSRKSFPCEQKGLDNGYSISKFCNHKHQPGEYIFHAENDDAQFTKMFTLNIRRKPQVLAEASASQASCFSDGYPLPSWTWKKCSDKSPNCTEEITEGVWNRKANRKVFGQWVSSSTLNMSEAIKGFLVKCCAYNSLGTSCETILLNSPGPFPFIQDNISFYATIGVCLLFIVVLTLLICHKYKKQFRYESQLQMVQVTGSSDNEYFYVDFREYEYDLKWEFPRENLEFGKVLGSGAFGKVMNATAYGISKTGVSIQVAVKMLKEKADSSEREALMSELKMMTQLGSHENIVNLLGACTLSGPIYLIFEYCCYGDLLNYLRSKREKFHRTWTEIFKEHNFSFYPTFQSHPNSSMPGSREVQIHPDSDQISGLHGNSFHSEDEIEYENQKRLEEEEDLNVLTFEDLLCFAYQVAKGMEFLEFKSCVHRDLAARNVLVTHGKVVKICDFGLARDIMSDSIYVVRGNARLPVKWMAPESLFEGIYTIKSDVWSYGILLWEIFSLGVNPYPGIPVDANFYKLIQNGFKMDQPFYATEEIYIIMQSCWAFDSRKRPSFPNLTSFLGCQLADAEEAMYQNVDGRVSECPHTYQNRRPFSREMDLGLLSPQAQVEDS
The assay is described as follows: KINOMEscan ScanTK. It is filed as binding.

Assay [1] concerns the target T4, TYK2(JH1domain-catalytic) (Homo sapiens, UniProt P29597).
T4 construct: TYK2(JH1domain-catalytic); purchased Eurofins DiscoverX KINOMEscan (scanTK)
T4 sequence (P29597 888-1187 limits assumed): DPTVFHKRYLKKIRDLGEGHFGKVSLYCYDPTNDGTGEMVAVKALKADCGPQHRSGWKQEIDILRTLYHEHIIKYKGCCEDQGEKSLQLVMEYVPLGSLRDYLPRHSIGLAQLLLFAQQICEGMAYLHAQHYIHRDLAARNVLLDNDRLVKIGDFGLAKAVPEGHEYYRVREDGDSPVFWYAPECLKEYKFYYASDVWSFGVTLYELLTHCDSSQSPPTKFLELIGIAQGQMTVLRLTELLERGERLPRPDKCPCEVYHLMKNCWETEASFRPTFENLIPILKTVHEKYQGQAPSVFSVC
In words: KINOMEscan ScanTK. It counts as binding.

Like-named read-outs stand apart in the source and are kept apart here.

T1 sequence (Q15375 28-998): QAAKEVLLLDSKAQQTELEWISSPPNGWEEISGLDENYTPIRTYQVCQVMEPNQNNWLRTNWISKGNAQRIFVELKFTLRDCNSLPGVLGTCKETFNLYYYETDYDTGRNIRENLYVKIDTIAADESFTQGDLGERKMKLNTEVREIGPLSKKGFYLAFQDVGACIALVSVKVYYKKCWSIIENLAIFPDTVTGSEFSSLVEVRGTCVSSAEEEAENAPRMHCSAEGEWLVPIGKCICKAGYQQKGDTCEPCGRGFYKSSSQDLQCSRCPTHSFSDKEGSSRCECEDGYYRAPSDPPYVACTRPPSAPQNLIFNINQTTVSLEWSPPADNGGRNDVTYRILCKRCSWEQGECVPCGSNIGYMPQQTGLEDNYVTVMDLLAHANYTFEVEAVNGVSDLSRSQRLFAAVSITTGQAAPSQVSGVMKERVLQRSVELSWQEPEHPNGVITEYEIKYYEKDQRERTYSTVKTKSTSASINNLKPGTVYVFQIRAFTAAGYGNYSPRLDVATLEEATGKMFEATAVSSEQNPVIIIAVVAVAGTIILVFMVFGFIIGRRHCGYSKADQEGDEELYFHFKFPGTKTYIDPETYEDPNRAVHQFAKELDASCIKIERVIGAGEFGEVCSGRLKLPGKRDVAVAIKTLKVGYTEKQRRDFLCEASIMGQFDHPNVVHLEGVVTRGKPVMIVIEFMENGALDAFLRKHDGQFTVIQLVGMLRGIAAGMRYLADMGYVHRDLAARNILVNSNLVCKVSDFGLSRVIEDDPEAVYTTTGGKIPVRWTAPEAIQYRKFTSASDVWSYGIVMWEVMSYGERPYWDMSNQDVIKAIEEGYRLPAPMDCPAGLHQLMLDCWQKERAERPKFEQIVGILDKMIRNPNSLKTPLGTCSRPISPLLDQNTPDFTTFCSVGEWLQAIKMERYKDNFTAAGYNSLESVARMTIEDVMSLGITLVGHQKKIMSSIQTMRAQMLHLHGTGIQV
T2 sequence (P51451 whole entry): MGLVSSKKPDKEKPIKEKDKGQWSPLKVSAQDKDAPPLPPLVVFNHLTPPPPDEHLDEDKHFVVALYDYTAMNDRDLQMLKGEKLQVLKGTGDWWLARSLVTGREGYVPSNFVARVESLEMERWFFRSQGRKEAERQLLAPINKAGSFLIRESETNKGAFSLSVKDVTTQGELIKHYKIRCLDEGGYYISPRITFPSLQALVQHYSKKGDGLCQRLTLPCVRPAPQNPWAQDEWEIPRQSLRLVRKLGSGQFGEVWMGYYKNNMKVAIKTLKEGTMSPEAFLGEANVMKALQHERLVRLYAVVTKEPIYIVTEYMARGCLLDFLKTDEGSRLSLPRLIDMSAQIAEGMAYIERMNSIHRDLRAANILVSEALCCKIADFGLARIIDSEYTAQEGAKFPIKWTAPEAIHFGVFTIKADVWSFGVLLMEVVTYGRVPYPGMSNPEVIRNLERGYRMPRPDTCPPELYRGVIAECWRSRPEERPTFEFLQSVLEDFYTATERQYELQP

Regarding `C=CC(=O)N1CCC[C@@H](n2nc(-c3ccc(Oc4ccccc4)cc3)c3c(N)ncnc32)C1` [Compound 1g, Ibrutinib, reference compound], in the assay on FLT3(ITD,F691L), the “%Control @1000nM” value was found to be 100% and the “%Control” value was found to be 100%. The remaining binding at 1 µM on EPHA7 (@1000nM, read-out: %Control) came out at 95%. Besides, the remaining binding at 1 µM at EPHA7 (read-out: %Control @1000nM) was found to be 95%. Moreover, the remaining binding at 1 µM at BLK (@1000nM, read-out: %Control) stood at 0.05%. In addition, the remaining binding at 1 µM at BLK (read-out: %Control @1000nM) stood at 0.05%. The inhibition (commonly how much of the control response was suppressed) at 1 µM against BLK (ScanTK, 1 μM) was above 99%. In the assay with TMD8 cells, the “number of genes unchanged vs DMSO” value amounted to 14846 genes, the “number of genes reduced vs DMSO” value came to 125 genes and the “number of genes increased vs DMSO” value was 76 genes.
For the compound `Cc1cnc(S(C)(=O)=O)nc1N1CCCC(n2nc(-c3ccc(Oc4ccccc4)cc3)c3c(N)ncnc32)C1` (stereo not shown) [Compound 8a, 1-(1-(5-Methyl-2-(methylsulfonyl)pyrimidin-4-yl)piperidin-3-yl)-3-(4-phenoxyphenyl)-1H-pyrazolo[3,4-d]pyrimidin-4-amine], the difference in %Control versus compound Ib at 1 µM on FLT3(N841I) (@1000nM) came out at 40%; at EPHA7 (@1000nM), 2%. Besides, the remaining binding at 1 µM on FLT3(N841I) (@1000nM, read-out: %Control) came out at 59%; on FLT3(N841I) (read-out: %Control @1000nM), 59%; in assay [1] (@1000nM, read-out: %Control), 89%; in assay [1] (read-out: %Control @1000nM), 89%; at EPHA7 (@1000nM, read-out: %Control), 97%; at EPHA7 (read-out: %Control @1000nM), 97%. The remaining binding at 1 µM at BLK (@1000nM, read-out: %Control) turned out to be 0.1%; at BLK (read-out: %Control @1000nM), 0.1%. In addition, in the assay on FLT3(ITD,F691L), the “%Control @1000nM” value came out at 96%. In addition, the “% difference (compound - Ib %Control)” value with FLT3(ITD,F691L) is recorded as -4%. For the same compound, the “%Control” value in the assay with FLT3(ITD,F691L) was 96%. Besides, at BLK (@1000nM), the difference in %Control vs reference Ib at 1 µM worked out at 0.05%. Moreover, the “number of genes unchanged vs DMSO” value in the assay on TMD8 cells is listed as 14761 genes. The “number of genes reduced vs DMSO” value in the assay with TMD8 cells is 189 genes. Moreover, in the assay on TMD8 cells, the “number of genes increased vs DMSO” value was determined as 97 genes.
Turning to `COC(=O)c1cnc(S(C)(=O)=O)nc1N1CCCC(n2nc(-c3ccc(Oc4ccccc4)cc3)c3c(N)ncnc32)C1` (stereo not shown) [Compound 8b, Methyl 4-(3-(4-Amino-3-(4-phenoxyphenyl)-1H-pyrazolo[3,4-d]pyrimidin-1-yl)piperidin-1-yl)-2-(methylsulfonyl)pyrimidine-5-carboxylate], the difference in %Control versus compound Ib at 1 µM on FLT3(N841I) (@1000nM) is 43%; at EPHA7 (@1000nM) it was -2%. Besides, the remaining binding at 1 µM on FLT3(N841I) (@1000nM, read-out: %Control) turned out to be 62%; on FLT3(N841I) (read-out: %Control @1000nM), 62%; in assay [1] (@1000nM, read-out: %Control) it was 95%; in assay [1] (read-out: %Control @1000nM), 95%; at EPHA7 (@1000nM, read-out: %Control), 93%; at EPHA7 (read-out: %Control @1000nM), 93%. Besides, the remaining binding at 1 µM was determined as 0.4% on BLK (@1000nM, read-out: %Control) and 0.4% on BLK (read-out: %Control @1000nM). Moreover, the “%Control @1000nM” value in the assay on FLT3(ITD,F691L) amounted to 96%. The “% difference (compound - Ib %Control)” value in the assay on FLT3(ITD,F691L) is -4%. Also, the “%Control” value in the assay with FLT3(ITD,F691L) amounted to 96%. The difference in %Control vs reference Ib at 1 µM on BLK (@1000nM) turned out to be 0.35%. The “number of genes unchanged vs DMSO” value in the assay on TMD8 cells is 15031 genes. Moreover, the “number of genes reduced vs DMSO” value in the assay on TMD8 cells is recorded as 15 genes. In the assay on TMD8 cells, the “number of genes increased vs DMSO” value came out at 1 genes.
As for `CCOC(=O)c1cnc(S(C)(=O)=O)nc1N1CCC[C@@H](n2nc(-c3ccc(Oc4ccccc4)cc3)c3c(N)ncnc32)C1` [Compound 8c, Ethyl (R)-4-(3-(4-Amino-3-(4-phenoxyphenyl)-1H-pyrazolo[3,4-d]pyrimidin-1-yl)piperidin-1-yl)-2-(methylsulfonyl)pyrimidine-5-carboxylate], the difference in %Control versus compound Ib at 1 µM is 54% at FLT3(N841I) (@1000nM) and 2% on EPHA7 (@1000nM). The remaining binding at 1 µM was 73% at FLT3(N841I) (@1000nM, read-out: %Control); 73% at FLT3(N841I) (read-out: %Control @1000nM); 100% in assay [1] (@1000nM, read-out: %Control); 100% in assay [1] (read-out: %Control @1000nM); 97% on EPHA7 (@1000nM, read-out: %Control); 97% on EPHA7 (read-out: %Control @1000nM). Also, the remaining binding at 1 µM turned out to be 0.2% at BLK (@1000nM, read-out: %Control) and 0.2% on BLK (read-out: %Control @1000nM). Further, in the assay with FLT3(ITD,F691L), the “%Control @1000nM” value came to 100%. Also, the “% difference (compound - Ib %Control)” value in the assay on FLT3(ITD,F691L) is reported as 0%. In addition, the “%Control” value in the assay on FLT3(ITD,F691L) turned out to be 100%. The difference in %Control vs reference Ib at 1 µM on BLK (@1000nM) was found to be 0.15%. Besides, the “number of genes unchanged vs DMSO” value with TMD8 cells stood at 15047 genes. In the assay with TMD8 cells, the “number of genes reduced vs DMSO” value was 0 genes. The “number of genes increased vs DMSO” value in the assay with TMD8 cells was found to be 0 genes.

For the origin of these results see publication PMC11345841, “Exploring 2-Sulfonylpyrimidine Warheads as Acrylamide Surrogates for Targeted Covalent Inhibition: A BTK Story” (Journal of Medicinal Chemistry, 2024).
